Test results as given in patent publication US12558428B2, “Heterobifunctional compounds and their use in treating disease” (Halda Therapeutics OpCo, Inc., priority 2024, dated 2026).

Tests used:
Format in all cases: cell-based
[1] = system: T-Rex 293 cells lacking increased expression of estrogen receptor alpha protein; test: Cellular growth inhibition assay, T-Rex 293 cells, (−) doxycycline; details: T-REx-293, 72 h, Table 7-A; T-Rex 293 cells without doxycycline (lacking increased ERα expression); 72 hours; CellTiter-Glo; read-out: (−) Dox GI50
Summary of the method: (§1)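 Viability read-out was CellTiter-Glo 2.0 luminescence after 72 h compound exposure, normalized to zero luminescence and fitted by four-parameter regression to give GI50. Cells were an ERα-inducible T-Rex 293 clone cultured with or without 3 ng/mL doxycycline in charcoal-stripped, phenol red-free medium.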

[2] = system: MCF7 cells (ATCC #HTB-22); test: Cellular growth inhibition assay, MCF7 cells purchased from ATCC; details: Homo sapiens, MCF7, 144 h, Table 8-A; MCF7 cells purchased from ATCC; six days; CellTiter-Glo; read-out: GI50
Summary of the method: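 MCF7 cells in RPMI 1640 with 10% FBS and 0.2 U/ml insulin, seeded at 1,500 cells/well (ATCC) or 225 cells/well (ECACC). Compounds added 24 h later, then 6 days at 37° C. Viability by CellTiter-Glo 2.0 luminescence. GI50 from four-parameter fit.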

[3] = system: T-Rex 293 cells having increased expression of estrogen receptor alpha protein; test: Cellular growth inhibition assay, T-Rex 293 cells, (+) doxycycline; details: T-REx-293, 72 h, Table 7-A; T-Rex 293 cells with doxycycline (increased ERα expression); 72 hours; CellTiter-Glo; read-out: (+) Dox GI50
Summary of the method: as §1

Row | SMILES | GI50 [1] [nM] | GI50 [2] [nM] | GI50 [3] [nM]
1 | Cc1sc2c(c1C)C(c1ccc(N3CCC(O)(CC4CCN(c5ccc([C@@H]6c7ccc(B(O)O)cc7CC[C@@H]6c6ccccc6)cc5)CC4)CC3)cc1)=N[C@@H](C)c1nnc(C)n1-2 [III-264] | 500 to 2500 | < 50 | < 50
2 | Cc1sc2c(c1C)C(c1ccc(N3CC4(CCC(CN5CCN(c6ccc([C@@H]7c8ccc(O)cc8CC[C@@H]7c7ccccc7)cc6Cl)CC5)CC4)C3)cc1)=N[C@@H](C)c1nnc(C)n1-2 [III-265] | > 2500 | 50 to 500 | 50 to 500
3 | Cc1sc2c(c1C)C(c1ccc(N3CC4(CCC(O)(CN5CCN(c6cc(F)c([C@@H]7c8ccc(O)cc8CC[C@@H]7c7ccc(F)cc7)c(F)c6)CC5)CC4)C3)cc1)=N[C@@H](C)c1nnc(C)n1-2 [III-266] | 500 to 2500 | < 50 | < 50
4 | Cc1sc2c(c1C)C(c1ccc(N3CC4(CCC(O)(CN5CCC(c6cc(F)c([C@H]7c8ccc(O)cc8CC[C@H]7c7ccc(F)cc7)c(F)c6)CC5)CC4)C3)cc1)=N[C@@H](C)c1nnc(C)n1-2 [III-267] | > 2500 | 50 to 500 | 50 to 500
5 | Cc1sc2c(c1C)C(c1ccc(N3CC4(C3)CC(O)(CN3CCN(c5ccc([C@@H]6c7ccc(O)cc7CC[C@@H]6c6ccccc6)cc5)CC3)C4)cc1)=N[C@@H](C)c1nnc(C)n1-2 [III-268] | 500 to 2500 | < 50 | < 50
6 | Cc1sc2c(c1C)C(c1ccc(N3CCC(O)(CN4CCN(c5ccc([C@H]6c7ccc(O)cc7CC[C@H]6c6ccc(F)c(F)c6)c(F)c5)CC4)CC3)cc1)=N[C@@H](C)c1nnc(C)n1-2 [III-269] | 50 to 500 | 50 to 500 | 50 to 500
7 | Cc1sc2c(c1C)C(c1ccc(N3CCC(O)(CN4CCN(c5ccc([C@@H]6c7ccc(O)cc7CC[C@@H]6c6ccc(F)c(F)c6)c(F)c5)CC4)CC3)cc1)=N[C@@H](C)c1nnc(C)n1-2 [III-270] | 500 to 2500 | 50 to 500 | < 50
8 | Cc1sc2c(c1C)C(c1ccc(N3CCC(O)(CN4CCN(c5ccc([C@H]6c7ccc(O)cc7CC[C@H]6c6cccc(F)c6F)c(F)c5)CC4)CC3)cc1)=N[C@@H](C)c1nnc(C)n1-2 [III-271] | 50 to 500 | 50 to 500 | 50 to 500
9 | Cc1sc2c(c1C)C(c1ccc(N3CCC(O)(CN4CCN(c5ccc([C@@H]6c7ccc(O)cc7CC[C@@H]6c6cccc(F)c6F)c(F)c5)CC4)CC3)cc1)=N[C@@H](C)c1nnc(C)n1-2 [III-272] | 500 to 2500 | < 50 | < 50
10 | Cc1sc2c(c1C)C(c1ccc(N3CCC(O)(CN4CCN(c5ccc([C@H]6c7ccc(O)cc7CC[C@H]6c6cc(F)ccc6F)c(F)c5)CC4)CC3)cc1)=N[C@@H](C)c1nnc(C)n1-2 [III-273] | 50 to 500 | 50 to 500 | 50 to 500
11 | Cc1sc2c(c1C)C(c1ccc(N3CCC(O)(CN4CCN(c5ccc([C@@H]6c7ccc(O)cc7CC[C@@H]6c6cc(F)ccc6F)c(F)c5)CC4)CC3)cc1)=N[C@@H](C)c1nnc(C)n1-2 [III-274] | 500 to 2500 | < 50 | < 50
12 | Cc1sc2c(c1C)C(c1ccc(N3CC4(CC(CN5CCN(c6cc(F)c([C@@H]7c8ccc(O)cc8CC[C@@H]7c7ccccc7)c(F)c6)CC5)C4)C3)cc1)=N[C@@H](C)c1nnc(C)n1-2 [III-277] | 500 to 2500 | < 50 | < 50
13 | Cc1sc2c(c1C)C(c1ccc(N3CC4(CC(CN5CCN(c6cc(F)c([C@H]7c8ccc(O)cc8CC[C@H]7c7ccccc7)c(F)c6)CC5)C4)C3)cc1)=N[C@@H](C)c1nnc(C)n1-2 [III-278] | 500 to 2500 | 50 to 500 | 50 to 500
14 | Cc1sc2c(c1C)C(c1ccc(N3CC4(C3)CC(O)(CN3CCN(c5cc(F)c([C@@H]6c7ccc(O)cc7CC[C@@H]6c6ccc(F)cc6)c(F)c5)CC3)C4)cc1)=N[C@@H](C)c1nnc(C)n1-2 [III-279] | 500 to 2500 | < 50 | < 50
15 | Cc1sc2c(c1C)C(c1ccc(N3CC4(C3)CC(O)(CN3CCN(c5cc(F)c([C@H]6c7ccc(O)cc7CC[C@H]6c6ccc(F)cc6)c(F)c5)CC3)C4)cc1)=N[C@@H](C)c1nnc(C)n1-2 [III-280] | 500 to 2500 | 50 to 500 | 50 to 500
16 | Cc1sc2c(c1C)C(c1ccc(N3CC4(CC(CN5CCN(c6ccc([C@H]7c8ccc(O)cc8CC[C@H]7c7ccc(F)cc7)cc6F)CC5)C4)C3)cc1)=N[C@@H](C)c1nnc(C)n1-2 [III-281] | 500 to 2500 | 500 to 2500 | 50 to 500
17 | Cc1sc2c(c1C)C(c1ccc(N3CC4(CC(CN5CCN(c6ccc([C@@H]7c8ccc(O)cc8CC[C@@H]7c7ccc(F)cc7)cc6F)CC5)C4)C3)cc1)=N[C@@H](C)c1nnc(C)n1-2 [III-282] | 50 to 500 | < 50 | < 50
